Measurements reported in PubChem BioAssay (NCI).
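96-well plates; 48 h exposure; 5 concentrations. Endpoints by linear interpolation between flanking doses. Not reached: highest tested concentration assigned. TGI marks complete inhibition of growth.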

Legend:
Experiment in all cases: NCI anticancer screen, dose series, 48 h
[1] = test system: BT-549 breast
[2] = test system: MOLT-4 leukemia
[3] = test system: NCI-H23 lung
[4] = test system: SN12C renal
[5] = test system: MCF7 breast
[6] = test system: SK-MEL-28 melanoma
[7] = test system: IGROV1 ovarian
[8] = test system: SF-268 CNS
[9] = test system: SK-MEL-2 melanoma
[10] = test system: HOP-92 NSCLC
[11] = test system: MDA-MB-231 breast
[12] = test system: CCRF-CEM leukemia
[13] = test system: HT29 colon
[14] = test system: NCI-H522 lung
[15] = test system: HS 578T breast
[16] = test system: EKVX NSCLC
[17] = test system: NCI/ADR-RES ovarian
[18] = test system: MALME-3M melanoma
[19] = test system: DU-145 prostate
[20] = test system: OVCAR-8 ovarian
[21] = test system: 786-0 renal
[22] = test system: RPMI-8226 leukemia
[23] = test system: ACHN renal
[24] = test system: SF-539 CNS
[25] = test system: OVCAR-5 ovarian
[26] = test system: A549 NSCLC
[27] = test system: U251 CNS
[28] = test system: SW-620 colon
[29] = test system: SK-MEL-5 melanoma
[30] = test system: COLO 205 colon
[31] = test system: HCT-15 colon
[32] = test system: HCT-116 colon
[33] = test system: LOX IMVI melanoma
[34] = test system: PC-3 prostate
[35] = test system: M14 melanoma
[36] = test system: MDA-N
[37] = test system: TK-10 renal
[38] = test system: UACC-257 melanoma
[39] = test system: HL-60(TB) leukemia
[40] = test system: OVCAR-4 ovarian
[41] = test system: T-47D breast
[42] = test system: UACC-62 melanoma
[43] = test system: NCI-H460 lung
[44] = test system: CAKI-1 renal
[45] = test system: KM12 colon
[46] = test system: MDA-MB-435
[47] = test system: SNB-19 CNS
[48] = test system: A498 renal
[49] = test system: OVCAR-3 ovarian
[50] = test system: SF-295 CNS
[51] = test system: RXF 393 renal
[52] = test system: HOP-62 NSCLC
[53] = test system: SK-OV-3 ovarian
[54] = test system: SNB-75 CNS
[55] = test system: K-562 leukemia
[56] = test system: HCC-2998 colon
[57] = test system: NCI-H226 lung

Measured: TGI

CCOP(=O)(OCC)C(N)c1ccc(Cl)cc1 (centres undefined)
not listed: [49] | [50] | [51] | [52] | [53] | [54] | [55] | [56] | [57]
> 100 µM: all other assays above

CC(=O)OC1COC(Nc2nc(NCc3ccccc3)n(C)c(=O)c2N=O)C(OC(C)=O)C1OC(C)=O (centres undefined)
not listed: [10]
> 10 µM: all other assays above
